Test [1] deals with Testis-specific serine/threonine-protein kinase 3 (Homo sapiens) (UniProt Q96PN8). Kind of test: Inhibition of TSSK3 (unknown origin) assessed as residual activity at 1000 nM by KINOMEscan analysis relative to control.
In test [2] the target is T1, Son of sevenless homolog 1 (Homo sapiens) (UniProt Q07889).
T1 sequence (whole entry): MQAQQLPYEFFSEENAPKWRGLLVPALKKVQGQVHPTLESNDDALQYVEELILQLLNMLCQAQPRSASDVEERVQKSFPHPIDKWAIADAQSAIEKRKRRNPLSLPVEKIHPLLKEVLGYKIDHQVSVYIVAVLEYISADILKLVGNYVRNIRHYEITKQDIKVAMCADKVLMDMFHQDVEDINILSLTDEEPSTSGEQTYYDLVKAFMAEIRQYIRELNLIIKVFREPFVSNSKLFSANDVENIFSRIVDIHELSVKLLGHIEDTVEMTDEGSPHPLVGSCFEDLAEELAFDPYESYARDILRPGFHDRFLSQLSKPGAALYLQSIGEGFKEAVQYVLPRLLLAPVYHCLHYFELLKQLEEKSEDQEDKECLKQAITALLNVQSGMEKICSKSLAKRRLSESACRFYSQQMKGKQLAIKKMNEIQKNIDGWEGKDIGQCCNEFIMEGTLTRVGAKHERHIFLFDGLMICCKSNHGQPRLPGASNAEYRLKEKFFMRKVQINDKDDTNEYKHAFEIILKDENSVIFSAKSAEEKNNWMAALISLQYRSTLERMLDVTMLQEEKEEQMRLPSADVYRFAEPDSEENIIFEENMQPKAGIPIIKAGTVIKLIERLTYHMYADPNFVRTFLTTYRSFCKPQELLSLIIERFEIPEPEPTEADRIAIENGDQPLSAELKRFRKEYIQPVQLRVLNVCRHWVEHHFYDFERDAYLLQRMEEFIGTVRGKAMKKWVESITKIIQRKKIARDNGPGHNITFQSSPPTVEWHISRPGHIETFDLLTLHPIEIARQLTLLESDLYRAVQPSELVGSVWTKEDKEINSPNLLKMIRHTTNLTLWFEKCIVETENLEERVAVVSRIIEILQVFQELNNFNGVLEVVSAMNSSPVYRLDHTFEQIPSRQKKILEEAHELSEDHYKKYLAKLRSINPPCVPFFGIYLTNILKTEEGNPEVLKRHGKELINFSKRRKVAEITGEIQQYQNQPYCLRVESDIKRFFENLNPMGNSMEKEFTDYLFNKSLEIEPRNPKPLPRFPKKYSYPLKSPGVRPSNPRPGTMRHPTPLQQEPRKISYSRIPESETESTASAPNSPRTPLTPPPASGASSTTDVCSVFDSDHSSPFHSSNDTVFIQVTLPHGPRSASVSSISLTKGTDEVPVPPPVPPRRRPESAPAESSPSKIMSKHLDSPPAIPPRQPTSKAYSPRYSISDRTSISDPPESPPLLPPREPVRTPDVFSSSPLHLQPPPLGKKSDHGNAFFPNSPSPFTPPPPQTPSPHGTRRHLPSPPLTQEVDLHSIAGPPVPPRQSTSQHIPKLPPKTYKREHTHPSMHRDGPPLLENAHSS
The test can be described thus: Binding affinity to N-terminal His10-tagged wild-type recombinant human SOS1 catalytic domain (564 to 1049 residues) expressed in Escherichia coli assessed as change in Gibbs free energy by ITC analysis. For orientation: In ITC the heat of successive injections is recorded.

For test [3], the target named is T2, Cyclin-dependent kinase-like 5 (Homo sapiens) (UniProt O76039).
T2 sequence (whole entry): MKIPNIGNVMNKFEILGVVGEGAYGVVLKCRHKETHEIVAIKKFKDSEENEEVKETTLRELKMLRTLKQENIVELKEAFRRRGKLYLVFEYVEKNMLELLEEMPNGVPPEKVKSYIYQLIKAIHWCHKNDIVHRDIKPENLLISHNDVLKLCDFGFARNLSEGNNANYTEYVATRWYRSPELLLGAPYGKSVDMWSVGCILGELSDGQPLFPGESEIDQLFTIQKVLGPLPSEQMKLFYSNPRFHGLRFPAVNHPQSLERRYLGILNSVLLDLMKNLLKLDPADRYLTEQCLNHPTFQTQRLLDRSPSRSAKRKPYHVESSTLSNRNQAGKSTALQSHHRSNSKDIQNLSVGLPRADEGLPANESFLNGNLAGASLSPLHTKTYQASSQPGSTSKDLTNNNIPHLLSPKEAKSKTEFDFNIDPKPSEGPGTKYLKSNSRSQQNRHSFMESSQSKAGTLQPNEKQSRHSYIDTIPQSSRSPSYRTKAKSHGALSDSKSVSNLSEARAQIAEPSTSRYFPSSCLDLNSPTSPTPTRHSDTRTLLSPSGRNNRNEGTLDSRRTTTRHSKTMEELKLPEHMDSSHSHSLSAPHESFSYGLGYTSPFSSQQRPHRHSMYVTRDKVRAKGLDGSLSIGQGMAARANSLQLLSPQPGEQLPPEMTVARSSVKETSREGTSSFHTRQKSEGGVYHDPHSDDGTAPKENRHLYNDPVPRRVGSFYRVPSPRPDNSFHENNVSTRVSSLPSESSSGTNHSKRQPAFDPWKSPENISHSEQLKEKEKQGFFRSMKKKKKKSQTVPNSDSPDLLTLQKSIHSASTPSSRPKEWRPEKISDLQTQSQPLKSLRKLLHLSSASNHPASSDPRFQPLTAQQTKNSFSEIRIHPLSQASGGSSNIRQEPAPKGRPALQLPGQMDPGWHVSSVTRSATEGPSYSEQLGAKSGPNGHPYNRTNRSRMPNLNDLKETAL
The test can be described thus: Inhibition of CDKL5 (unknown origin) assessed as residual activity at 100 nM by KINOMEscan analysis relative to control.

Test [4] concerns the target Serine/threonine-protein kinase Chk2 (Homo sapiens) (UniProt O96017). The test can be described thus: Inhibition of CHEK2 (unknown origin) assessed as residual activity at 100 nM by KINOMEscan analysis relative to control.
In test [5] the target is MAP kinase-activated protein kinase 2 (Homo sapiens) (UniProt P49137). The test can be described thus: Inhibition of MAPKAPK2 (unknown origin) assessed as residual activity at 100 nM by KINOMEscan analysis relative to control.
MAP kinase-activated protein kinase 2 (Homo sapiens), sequence (P49137 whole entry, looked up): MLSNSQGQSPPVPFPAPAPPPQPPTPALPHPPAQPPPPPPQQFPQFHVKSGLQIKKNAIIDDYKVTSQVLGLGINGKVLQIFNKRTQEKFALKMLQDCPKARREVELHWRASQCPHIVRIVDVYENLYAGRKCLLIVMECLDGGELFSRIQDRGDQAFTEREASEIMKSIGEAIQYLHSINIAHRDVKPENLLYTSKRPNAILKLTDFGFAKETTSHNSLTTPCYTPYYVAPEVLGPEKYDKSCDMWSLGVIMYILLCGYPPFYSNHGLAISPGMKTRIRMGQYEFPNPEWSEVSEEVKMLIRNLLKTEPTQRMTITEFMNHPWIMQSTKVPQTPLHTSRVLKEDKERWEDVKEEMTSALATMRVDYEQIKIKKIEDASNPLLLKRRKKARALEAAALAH
The target in test [6] is Serine/threonine-protein kinase pim-3 (Homo sapiens) (UniProt Q86V86). Kind of test: Inhibition of PIM3 (unknown origin) assessed as residual activity at 100 nM by KINOMEscan analysis relative to control.
The target of test [7] is Ribosomal protein S6 kinase alpha-5 (Homo sapiens) (UniProt O75582). Kind of test: Inhibition of N-terminal RPS6KA5 kinetic domain 1 (unknown origin) assessed as residual activity at 100 nM by KINOMEscan analysis relative to control.
Ribosomal protein S6 kinase alpha-5 (Homo sapiens), sequence (O75582 whole entry, looked up, the tested form may be a part): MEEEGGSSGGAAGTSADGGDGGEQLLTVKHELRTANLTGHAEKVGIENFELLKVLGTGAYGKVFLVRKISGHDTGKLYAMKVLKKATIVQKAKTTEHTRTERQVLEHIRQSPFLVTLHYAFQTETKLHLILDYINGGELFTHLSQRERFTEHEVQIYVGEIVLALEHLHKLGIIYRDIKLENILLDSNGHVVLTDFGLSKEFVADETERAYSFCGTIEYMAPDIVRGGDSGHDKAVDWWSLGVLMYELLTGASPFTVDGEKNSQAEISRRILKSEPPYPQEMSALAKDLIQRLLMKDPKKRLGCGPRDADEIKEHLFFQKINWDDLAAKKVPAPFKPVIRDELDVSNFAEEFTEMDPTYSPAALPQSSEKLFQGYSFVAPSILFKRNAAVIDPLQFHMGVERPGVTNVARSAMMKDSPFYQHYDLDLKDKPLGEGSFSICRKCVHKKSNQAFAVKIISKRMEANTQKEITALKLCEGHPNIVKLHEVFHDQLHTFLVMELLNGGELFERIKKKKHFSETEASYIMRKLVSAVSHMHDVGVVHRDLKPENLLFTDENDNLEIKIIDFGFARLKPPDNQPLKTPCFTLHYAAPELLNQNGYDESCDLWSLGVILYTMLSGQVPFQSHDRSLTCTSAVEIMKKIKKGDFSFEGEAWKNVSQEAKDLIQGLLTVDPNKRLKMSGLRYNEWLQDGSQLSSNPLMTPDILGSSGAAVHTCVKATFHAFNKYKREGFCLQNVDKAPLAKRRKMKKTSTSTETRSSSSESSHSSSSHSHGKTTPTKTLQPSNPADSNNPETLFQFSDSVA
Test [8] has as its target Tyrosine-protein kinase Yes (Homo sapiens) (UniProt P07947). The test can be described thus: Inhibition of YES (unknown origin) assessed as residual activity at 100 nM by KINOMEscan analysis relative to control.
For test [9], the target named is T3, Son of sevenless homolog 1 (Homo sapiens, UniProt Q07889).
T3 sequence (Q07889 whole entry): T1 sequence (whole entry)
The test can be described thus: Inhibition of SOS1 in human Calu-1 cells assessed as reduction in pERK level incubated for 24 hrs by HTRF analysis. It counts as cell-based. (In general: In TR-FRET formats the signal depends on donor and acceptor labels being close together.)

Three molecules from ChEMBL document CHEMBL5678818, “Discovery of potent SOS1 inhibitors that block RAS activation via disruption of the RAS-SOS1 interaction” (Proc Natl Acad Sci U S A, 2019) can be followed below.

As a reminder, the IC50 is the concentration at which inhibition is half-maximal.

Tyrosine-protein kinase Yes (Homo sapiens), sequence (P07947 2-543 limits assumed): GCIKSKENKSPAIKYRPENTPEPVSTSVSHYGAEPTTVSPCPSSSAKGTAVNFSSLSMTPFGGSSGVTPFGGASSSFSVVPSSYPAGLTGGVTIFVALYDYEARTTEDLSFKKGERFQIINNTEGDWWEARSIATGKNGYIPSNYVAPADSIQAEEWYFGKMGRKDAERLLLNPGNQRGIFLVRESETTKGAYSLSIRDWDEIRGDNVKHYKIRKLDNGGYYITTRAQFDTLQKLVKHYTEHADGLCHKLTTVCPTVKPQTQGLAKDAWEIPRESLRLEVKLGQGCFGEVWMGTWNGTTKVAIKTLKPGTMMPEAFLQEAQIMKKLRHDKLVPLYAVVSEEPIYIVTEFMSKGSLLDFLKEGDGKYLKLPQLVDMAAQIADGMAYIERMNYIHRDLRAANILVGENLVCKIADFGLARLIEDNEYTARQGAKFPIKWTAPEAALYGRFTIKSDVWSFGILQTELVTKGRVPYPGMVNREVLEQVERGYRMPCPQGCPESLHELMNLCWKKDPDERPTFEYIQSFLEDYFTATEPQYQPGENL
Testis-specific serine/threonine-protein kinase 3 (Homo sapiens), sequence (Q96PN8 whole entry): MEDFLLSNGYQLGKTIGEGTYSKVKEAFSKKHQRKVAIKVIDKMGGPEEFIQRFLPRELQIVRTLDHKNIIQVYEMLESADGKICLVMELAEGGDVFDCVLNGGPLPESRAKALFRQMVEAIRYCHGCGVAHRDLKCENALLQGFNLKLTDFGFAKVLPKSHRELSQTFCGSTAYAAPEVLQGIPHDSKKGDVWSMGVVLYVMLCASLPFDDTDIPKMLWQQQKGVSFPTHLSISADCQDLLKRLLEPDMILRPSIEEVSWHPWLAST
Serine/threonine-protein kinase Chk2 (Homo sapiens), sequence (O96017 whole entry): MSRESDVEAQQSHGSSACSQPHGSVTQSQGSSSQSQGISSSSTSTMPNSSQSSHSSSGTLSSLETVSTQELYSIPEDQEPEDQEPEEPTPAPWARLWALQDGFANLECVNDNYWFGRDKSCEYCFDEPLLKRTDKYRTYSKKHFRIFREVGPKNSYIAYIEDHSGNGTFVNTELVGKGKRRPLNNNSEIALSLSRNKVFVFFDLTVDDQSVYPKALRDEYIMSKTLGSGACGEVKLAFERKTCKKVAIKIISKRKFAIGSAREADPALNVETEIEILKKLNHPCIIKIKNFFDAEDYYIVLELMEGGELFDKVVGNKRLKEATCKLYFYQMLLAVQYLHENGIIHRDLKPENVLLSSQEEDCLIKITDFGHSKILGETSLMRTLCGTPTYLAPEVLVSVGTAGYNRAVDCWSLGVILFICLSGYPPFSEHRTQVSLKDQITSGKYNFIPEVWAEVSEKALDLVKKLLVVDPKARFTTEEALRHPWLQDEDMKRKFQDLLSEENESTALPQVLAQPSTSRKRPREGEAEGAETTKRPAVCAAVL

`COc1cc2nc(C)nc(N[C@H](C)c3cccc(-c4cn[nH]c4)c3)c2cc1OC`: the Activity in test [1] was determined as 77%.
`COc1cc2ncnc(N[C@H](C)c3cccc4ccccc34)c2cc1OC`: in [2], the deltaG was -8.6 kcal/mol. For the same molecule, the Activity in test [3] was determined as 96%; in test [4], 100%; in test [5], 83%; in test [6] it was 87%; in test [7], 93%; in test [8], 100%.
As for `COc1cc2nc(C)nc(NC(C)c3ccc(-c4cnc5n4CCC5)s3)c2cc1OC` (centres undefined), the IC50 in [9] is 4.46 µM.
